Data published in ChEMBL document CHEMBL5113398, “Design and synthesis of new quinoline derivatives as selective C-RAF kinase inhibitors with potent anticancer activity” (Eur J Med Chem, 2022).
Values belong to the compound of their own block, whether it stands above or below them.

Columns and labels:
IGROV-1 = test: Anticancer activity against human IGROV-1 cells assessed as total cell growth inhibition incubated for 48 hrs by SRB assay; format: functional
MDA-MB-468 = test: Anticancer activity against human MDA-MB-468 cells assessed as cell growth inhibition incubated for 48 hrs by SRB assay; format: functional
[1] = target: RAF proto-oncogene serine/threonine-protein kinase (Homo sapiens, UniProt P04049); test: Inhibition of c-Raf (unknown origin) in presence of ATP by hotspot kinase assay
Sequence of RAF proto-oncogene serine/threonine-protein kinase (P04049 whole entry): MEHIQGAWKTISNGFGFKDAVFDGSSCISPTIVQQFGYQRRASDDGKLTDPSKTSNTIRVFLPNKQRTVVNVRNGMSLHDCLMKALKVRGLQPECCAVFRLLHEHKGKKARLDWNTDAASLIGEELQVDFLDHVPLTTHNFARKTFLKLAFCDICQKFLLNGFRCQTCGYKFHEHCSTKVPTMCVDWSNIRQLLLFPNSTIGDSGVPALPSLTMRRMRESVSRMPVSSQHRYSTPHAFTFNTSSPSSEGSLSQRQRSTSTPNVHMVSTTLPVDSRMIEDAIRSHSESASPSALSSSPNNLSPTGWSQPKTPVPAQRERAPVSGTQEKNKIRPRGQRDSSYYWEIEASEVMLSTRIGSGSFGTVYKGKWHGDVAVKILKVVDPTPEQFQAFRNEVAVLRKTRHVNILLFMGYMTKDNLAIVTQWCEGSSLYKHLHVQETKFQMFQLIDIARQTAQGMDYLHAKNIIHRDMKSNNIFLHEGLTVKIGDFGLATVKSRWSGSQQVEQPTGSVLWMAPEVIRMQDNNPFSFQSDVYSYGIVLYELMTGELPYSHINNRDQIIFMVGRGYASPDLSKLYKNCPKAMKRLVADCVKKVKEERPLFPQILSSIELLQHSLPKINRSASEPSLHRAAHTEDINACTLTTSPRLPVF

UACC-62 = test: Anticancer activity against human UACC-62 cells assessed as cell growth inhibition incubated for 48 hrs by SRB assay; format: functional
NCI-H522 = test: Anticancer activity against human NCI-H522 cells assessed as cell growth inhibition incubated for 48 hrs by SRB assay; format: functional
OVCAR-4 [2] = test: Anticancer activity against human OVCAR-4 cells assessed as cell growth inhibition incubated for 48 hrs by SRB assay; format: functional
OVCAR-5 [3] = test: Anticancer activity against human OVCAR-5 cells assessed as cell growth inhibition incubated for 48 hrs by SRB assay; format: functional
RXF 393 = test: Anticancer activity against human RXF 393 cells assessed as total cell growth inhibition incubated for 48 hrs by SRB assay; format: functional
HCT-15 = test: Anticancer activity against human HCT-15 cells assessed as total cell growth inhibition incubated for 48 hrs by SRB assay; format: functional
DU-145 [4] = test: Anticancer activity against human DU-145 cells assessed as total cell growth inhibition incubated for 48 hrs by SRB assay; format: functional
U-251 = test: Anticancer activity against human U-251 cells assessed as cell growth inhibition incubated for 48 hrs by SRB assay; format: functional
BT-549 = test: Anticancer activity against human BT-549 cells assessed as cell growth inhibition incubated for 48 hrs by SRB assay; format: functional
A549 [5] = test: Anticancer activity against human A549 cells assessed as cell growth inhibition incubated for 48 hrs by SRB assay; format: functional
OVCAR-4 [6] = test: Anticancer activity against human OVCAR-4 cells assessed as total cell growth inhibition incubated for 48 hrs by SRB assay; format: functional
NCI-H23 = test: Anticancer activity against human NCI-H23 cells assessed as cell growth inhibition incubated for 48 hrs by SRB assay; format: functional
A549 [7] = test: Anticancer activity against human A549 cells assessed as total cell growth inhibition incubated for 48 hrs by SRB assay; format: functional
M14 = test: Anticancer activity against human M14 cells assessed as total cell growth inhibition incubated for 48 hrs by SRB assay; format: functional
TK-10 [8] = test: Anticancer activity against human TK-10 cells assessed as total cell growth inhibition incubated for 48 hrs by SRB assay; format: functional
Hs-578T = test: Anticancer activity against human Hs-578T cells assessed as cell growth inhibition incubated for 48 hrs by SRB assay; format: functional
HT-29 = test: Anticancer activity against human HT-29 cells assessed as total cell growth inhibition incubated for 48 hrs by SRB assay; format: functional
SK-MEL-28 = test: Anticancer activity against human SK-MEL-28 cells assessed as cell growth inhibition incubated for 48 hrs by SRB assay; format: functional
[9] = n-Octanol/PBS partition coefficient, logD of the compound at pH 7.4; format: physicochemical
LOX IMVI = test: Anticancer activity against human LOX IMVI cells assessed as total cell growth inhibition incubated for 48 hrs by SRB assay; format: functional
SNB-19 = test: Anticancer activity against human SNB-19 cells assessed as total cell growth inhibition incubated for 48 hrs by SRB assay; format: functional
DU-145 [10] = test: Anticancer activity against human DU-145 cells assessed as cell growth inhibition incubated for 48 hrs by SRB assay; format: functional
T47D = test: Anticancer activity against human T47D cells assessed as cell growth inhibition incubated for 48 hrs by SRB assay; format: functional
SF-268 = test: Anticancer activity against human SF-268 cells assessed as total cell growth inhibition incubated for 48 hrs by SRB assay; format: functional
MOLT-4 = test: Anticancer activity against human MOLT-4 cells assessed as cell growth inhibition incubated for 48 hrs by SRB assay; format: functional
PC-3 = test: Anticancer activity against human PC-3 cells assessed as cell growth inhibition incubated for 48 hrs by SRB assay; format: functional
TK-10 [11] = test: Anticancer activity against human TK-10 cells assessed as cell growth inhibition incubated for 48 hrs by SRB assay; format: functional
HOP-62 = test: Anticancer activity against human HOP-62 cells assessed as total cell growth inhibition incubated for 48 hrs by SRB assay; format: functional
SN12C = test: Anticancer activity against human SN12C cells assessed as cell growth inhibition incubated for 48 hrs by SRB assay; format: functional
HCC 2998 = test: Anticancer activity against human HCC 2998 cells assessed as cell growth inhibition incubated for 48 hrs by SRB assay; format: functional
K562 = test: Anticancer activity against human K562 cells assessed as total cell growth inhibition incubated for 48 hrs by SRB assay; format: functional
NCI-H460 = test: Anticancer activity against human NCI-H460 cells assessed as total cell growth inhibition incubated for 48 hrs by SRB assay; format: functional
NCI-H226 = test: Anticancer activity against human NCI-H226 cells assessed as total cell growth inhibition incubated for 48 hrs by SRB assay; format: functional
SK-MEL-5 = test: Anticancer activity against human SK-MEL-5 cells assessed as total cell growth inhibition incubated for 48 hrs by SRB assay; format: functional
CAKI-1 = test: Anticancer activity against human CAKI-1 cells assessed as total cell growth inhibition incubated for 48 hrs by SRB assay; format: functional
NCI-H322M = test: Anticancer activity against human NCI-H322M cells assessed as cell growth inhibition incubated for 48 hrs by SRB assay; format: functional
OVCAR-3 = test: Anticancer activity against human OVCAR-3 cells assessed as cell growth inhibition incubated for 48 hrs by SRB assay; format: functional
HOP-92 = test: Anticancer activity against human HOP-92 cells assessed as total cell growth inhibition incubated for 48 hrs by SRB assay; format: functional
A498 = test: Anticancer activity against human A498 cells assessed as cell growth inhibition incubated for 48 hrs by SRB assay; format: functional
[12] = target: Receptor-type tyrosine-protein kinase FLT3 (Homo sapiens) (UniProt P36888); test: Inhibition of FLT3 (unknown origin) at 1 uM in presence of ATP by hotspot kinase assay
Sequence of Receptor-type tyrosine-protein kinase FLT3 (Homo sapiens) (P36888 whole entry): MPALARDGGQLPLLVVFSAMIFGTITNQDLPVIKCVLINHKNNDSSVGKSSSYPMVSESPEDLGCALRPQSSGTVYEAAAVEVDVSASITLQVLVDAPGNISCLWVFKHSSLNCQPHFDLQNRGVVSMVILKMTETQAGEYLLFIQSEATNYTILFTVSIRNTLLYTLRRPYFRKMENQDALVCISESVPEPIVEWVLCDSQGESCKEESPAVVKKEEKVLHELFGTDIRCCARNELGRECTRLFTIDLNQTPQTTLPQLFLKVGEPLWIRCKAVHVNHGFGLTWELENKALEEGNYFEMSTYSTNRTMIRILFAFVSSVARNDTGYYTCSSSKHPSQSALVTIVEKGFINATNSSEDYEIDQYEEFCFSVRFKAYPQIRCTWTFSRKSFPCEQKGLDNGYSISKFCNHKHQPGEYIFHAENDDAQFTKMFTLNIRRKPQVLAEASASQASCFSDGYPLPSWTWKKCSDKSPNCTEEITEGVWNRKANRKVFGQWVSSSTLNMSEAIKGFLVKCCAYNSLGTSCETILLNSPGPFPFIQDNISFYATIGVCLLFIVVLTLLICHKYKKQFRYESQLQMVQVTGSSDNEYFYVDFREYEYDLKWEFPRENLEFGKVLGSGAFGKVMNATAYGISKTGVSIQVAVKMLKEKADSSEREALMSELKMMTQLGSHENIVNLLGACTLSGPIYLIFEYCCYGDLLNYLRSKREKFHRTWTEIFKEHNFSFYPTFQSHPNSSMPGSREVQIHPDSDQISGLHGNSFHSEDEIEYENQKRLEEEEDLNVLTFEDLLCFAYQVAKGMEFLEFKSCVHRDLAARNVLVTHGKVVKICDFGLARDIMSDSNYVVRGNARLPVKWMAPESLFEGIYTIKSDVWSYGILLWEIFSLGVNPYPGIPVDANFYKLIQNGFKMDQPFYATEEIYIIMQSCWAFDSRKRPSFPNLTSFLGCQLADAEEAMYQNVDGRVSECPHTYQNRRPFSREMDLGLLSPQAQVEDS

ACHN = test: Anticancer activity against human ACHN cells assessed as cell growth inhibition incubated for 48 hrs by SRB assay; format: functional
OVCAR-5 [13] = test: Anticancer activity against human OVCAR-5 cells assessed as total cell growth inhibition incubated for 48 hrs by SRB assay; format: functional
[14] = target: Vascular endothelial growth factor receptor 2 (Homo sapiens) (UniProt P35968); test: Inhibition of KDR (unknown origin) at 1 uM in presence of ATP by hotspot kinase assay
Sequence of Vascular endothelial growth factor receptor 2 (Homo sapiens) (P35968 whole entry): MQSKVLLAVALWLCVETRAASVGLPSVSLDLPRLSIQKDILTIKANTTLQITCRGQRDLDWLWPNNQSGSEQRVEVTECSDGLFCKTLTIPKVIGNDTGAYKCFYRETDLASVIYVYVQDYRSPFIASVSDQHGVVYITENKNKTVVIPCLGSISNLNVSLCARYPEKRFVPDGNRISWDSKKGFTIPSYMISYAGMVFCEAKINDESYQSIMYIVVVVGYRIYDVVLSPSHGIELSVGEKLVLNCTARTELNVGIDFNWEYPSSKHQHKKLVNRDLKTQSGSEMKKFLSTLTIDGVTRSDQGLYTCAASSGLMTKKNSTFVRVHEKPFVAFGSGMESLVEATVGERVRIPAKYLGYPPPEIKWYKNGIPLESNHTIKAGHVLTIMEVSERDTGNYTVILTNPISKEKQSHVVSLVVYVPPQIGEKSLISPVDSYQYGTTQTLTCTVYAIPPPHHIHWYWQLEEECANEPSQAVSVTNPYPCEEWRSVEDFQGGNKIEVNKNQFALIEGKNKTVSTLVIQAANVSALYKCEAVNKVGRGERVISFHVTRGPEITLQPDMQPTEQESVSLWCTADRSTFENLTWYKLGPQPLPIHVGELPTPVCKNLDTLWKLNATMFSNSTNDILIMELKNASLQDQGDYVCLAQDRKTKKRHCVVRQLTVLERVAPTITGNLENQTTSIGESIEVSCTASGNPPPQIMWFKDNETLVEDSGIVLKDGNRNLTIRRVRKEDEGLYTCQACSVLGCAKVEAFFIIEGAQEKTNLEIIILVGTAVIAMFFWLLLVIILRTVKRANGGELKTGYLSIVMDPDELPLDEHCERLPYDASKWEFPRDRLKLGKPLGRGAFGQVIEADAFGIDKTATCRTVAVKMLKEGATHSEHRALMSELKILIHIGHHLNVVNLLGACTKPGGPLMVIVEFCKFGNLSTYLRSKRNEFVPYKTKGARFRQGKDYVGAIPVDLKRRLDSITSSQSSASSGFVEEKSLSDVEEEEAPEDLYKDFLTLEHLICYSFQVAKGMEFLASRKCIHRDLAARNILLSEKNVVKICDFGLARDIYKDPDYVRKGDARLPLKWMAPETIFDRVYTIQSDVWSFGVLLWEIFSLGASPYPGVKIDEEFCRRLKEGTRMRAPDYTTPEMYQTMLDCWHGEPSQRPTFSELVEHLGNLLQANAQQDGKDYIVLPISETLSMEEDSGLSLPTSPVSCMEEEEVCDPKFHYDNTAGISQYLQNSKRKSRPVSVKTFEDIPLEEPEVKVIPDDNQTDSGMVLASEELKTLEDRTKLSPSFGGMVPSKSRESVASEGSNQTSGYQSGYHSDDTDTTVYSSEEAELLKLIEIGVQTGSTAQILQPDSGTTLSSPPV

HL-60 = test: Anticancer activity against human HL-60 cells assessed as total cell growth inhibition incubated for 48 hrs by SRB assay; format: functional
MCF7 = test: Anticancer activity against human MCF7 cells assessed as cell growth inhibition incubated for 48 hrs by SRB assay; format: functional

GI50 (MDA-MB-468): 0.47 µM
IC50 [1]: 0.082 µM
GI50 (NCI-H522): 1.43 µM
GI50 (OVCAR-4 [2]): 0.58 µM
GI50 (OVCAR-5 [3]): 4.02 µM
GI50 (U-251): 1.76 µM
GI50 (BT-549): 2.63 µM
GI50 (A549 [5]): 2.13 µM
GI50 (NCI-H23): 1.12 µM
GI50 (SK-MEL-28): 1.55 µM
logD [9]: 2.73
GI50 (DU-145 [10]): 2.69 µM
GI50 (T47D): 1.32 µM
GI50 (MOLT-4): 1.48 µM
GI50 (PC-3): 1.36 µM
GI50 (HCC 2998): 11.1 µM
GI50 (NCI-H322M): 2.82 µM
GI50 (OVCAR-3): 1.52 µM
inhibition [12]: 13.2%
GI50 (ACHN): 2.03 µM
inhibition [14]: 1.56%
GI50 (MCF7): 1.26 µM
SMILES: COc1cc2cc(Oc3ccc(NC(=O)Nc4ccc(Cl)c(C(F)(F)F)c4)cc3)c(C)nc2cc1OCCN1CCOCC1
TGI (IGROV-1): 23.2 µM
GI50 (UACC-62): 1.36 µM
TGI (RXF 393): 3.99 µM
TGI (HCT-15): 3.18 µM
TGI (DU-145 [4]): 13.8 µM
TGI (OVCAR-4 [6]): 3.41 µM
TGI (A549 [7]): > 100 µM
TGI (M14): 3.45 µM
TGI (TK-10 [8]): 35.2 µM
GI50 (Hs-578T): 1.83 µM
TGI (HT-29): 11.2 µM
TGI (LOX IMVI): 2.81 µM
TGI (SNB-19): 19.8 µM
TGI (SF-268): 8.44 µM
GI50 (TK-10 [11]): 4.97 µM
TGI (HOP-62): 4.55 µM
GI50 (SN12C): 2.56 µM
TGI (K562): 6.95 µM
TGI (NCI-H460): 3.62 µM
TGI (NCI-H226): 5.91 µM
TGI (SK-MEL-5): 2.37 µM
TGI (CAKI-1): 10.8 µM
TGI (HOP-92): 6.17 µM
GI50 (A498): 2.45 µM
TGI (OVCAR-5 [13]): 65.2 µM
TGI (HL-60): 7.56 µM

GI50 (MDA-MB-468): 0.45 µM
IC50 [1]: 0.067 µM
GI50 (NCI-H522): 2.04 µM
GI50 (OVCAR-4 [2]): 0.71 µM
GI50 (OVCAR-5 [3]): 5.11 µM
GI50 (U-251): 2.83 µM
GI50 (BT-549): 2.44 µM
GI50 (A549 [5]): 2.57 µM
GI50 (NCI-H23): 1.43 µM
GI50 (SK-MEL-28): 1.62 µM
logD [9]: 2.54
GI50 (DU-145 [10]): 3.5 µM
GI50 (T47D): 1.91 µM
GI50 (MOLT-4): 1.86 µM
GI50 (PC-3): 1.44 µM
GI50 (HCC 2998): 5.34 µM
GI50 (NCI-H322M): 3.37 µM
GI50 (OVCAR-3): 2.94 µM
inhibition [12]: 28.4%
GI50 (ACHN): 2.3 µM
inhibition [14]: -2.9%
GI50 (MCF7): 1.46 µM
SMILES: COc1cc2cc(Oc3ccc(NC(=O)Nc4ccc(F)c(C(F)(F)F)c4)cc3)c(C)nc2cc1OCCN1CCOCC1
TGI (IGROV-1): 19.5 µM
GI50 (UACC-62): 1.36 µM
TGI (RXF 393): 3.94 µM
TGI (HCT-15): 4.19 µM
TGI (DU-145 [4]): 15.2 µM
TGI (OVCAR-4 [6]): 5.23 µM
TGI (A549 [7]): 34.3 µM
TGI (M14): 3.31 µM
TGI (TK-10 [8]): 25.1 µM
GI50 (Hs-578T): 2.12 µM
TGI (HT-29): 21.8 µM
TGI (LOX IMVI): 2.86 µM
TGI (SNB-19): 19.3 µM
TGI (SF-268): 19.8 µM
GI50 (TK-10 [11]): 4.94 µM
TGI (HOP-62): 20.5 µM
GI50 (SN12C): 2.65 µM
TGI (K562): 10.3 µM
TGI (NCI-H460): 5.34 µM
TGI (NCI-H226): 13.2 µM
TGI (SK-MEL-5): 2.36 µM
TGI (CAKI-1): 9.55 µM
TGI (HOP-92): 4.96 µM
GI50 (A498): 2.8 µM
TGI (OVCAR-5 [13]): 21.7 µM
TGI (HL-60): 6.14 µM
